Measured values from patent publication US7414131B2, “Bicycloheteroarylamine compounds as ion channel ligands and uses thereof” (Renovis, Inc., priority 2003, dated 2008).
Structures can show the parent of a compound that is named as a salt.

Key:
[1] = system: Sprague-Dawley male rats; experiment: Carrageenan-induced thermal hyperalgesia, latency of paw withdrawal; format: in vivo; conditions: rat, carrageenan hindpaw; 30 mg/kg dosed one hour after carrageenan; tested two hours later
Method: Sprague-Dawley male rats obtained from Charles River, San Diego, Calif. were purchased at 150-175 g, and held for at least one week before testing. Pain was induced by injecting 100 μl of 2% carrageenan in 0.9% saline sub-Q into the right ventral hindpaw while the animals were under isofluorane anesthesia. Animals were then dosed one hour after with a concentration of 30 mg/kg of Compound 1. Two hours later, after acclimatizing in testing chambers for 20-30 minutes, animals were tested on both hindpaws for latency of paw withdrawal using a thermal testing apparatus. 2-3 trials were conducted with 10 minutes between trials. […] The figure depicts the time in seconds until animals withdraw from thermal stimulation at baseline and two hours after administration of delivery vehicle, control compound, and the dose of 30 mg/kg of Compound 1.

[2] = target: hVR1 (Homo sapiens, UniProt Q8NER1); experiment: High throughput calcium imaging assay (Fura2, Flex Station) of VR1 antagonists; format: cell-based; conditions: HEK 293 cells expressing hVR1; for % Inhibition @ 1 μM: 1 μM compound, inhibition of calcium ion influx; for IC50: concentrations 10 nM to 3.3 μM
hVR1, sequence (Q8NER1 whole entry): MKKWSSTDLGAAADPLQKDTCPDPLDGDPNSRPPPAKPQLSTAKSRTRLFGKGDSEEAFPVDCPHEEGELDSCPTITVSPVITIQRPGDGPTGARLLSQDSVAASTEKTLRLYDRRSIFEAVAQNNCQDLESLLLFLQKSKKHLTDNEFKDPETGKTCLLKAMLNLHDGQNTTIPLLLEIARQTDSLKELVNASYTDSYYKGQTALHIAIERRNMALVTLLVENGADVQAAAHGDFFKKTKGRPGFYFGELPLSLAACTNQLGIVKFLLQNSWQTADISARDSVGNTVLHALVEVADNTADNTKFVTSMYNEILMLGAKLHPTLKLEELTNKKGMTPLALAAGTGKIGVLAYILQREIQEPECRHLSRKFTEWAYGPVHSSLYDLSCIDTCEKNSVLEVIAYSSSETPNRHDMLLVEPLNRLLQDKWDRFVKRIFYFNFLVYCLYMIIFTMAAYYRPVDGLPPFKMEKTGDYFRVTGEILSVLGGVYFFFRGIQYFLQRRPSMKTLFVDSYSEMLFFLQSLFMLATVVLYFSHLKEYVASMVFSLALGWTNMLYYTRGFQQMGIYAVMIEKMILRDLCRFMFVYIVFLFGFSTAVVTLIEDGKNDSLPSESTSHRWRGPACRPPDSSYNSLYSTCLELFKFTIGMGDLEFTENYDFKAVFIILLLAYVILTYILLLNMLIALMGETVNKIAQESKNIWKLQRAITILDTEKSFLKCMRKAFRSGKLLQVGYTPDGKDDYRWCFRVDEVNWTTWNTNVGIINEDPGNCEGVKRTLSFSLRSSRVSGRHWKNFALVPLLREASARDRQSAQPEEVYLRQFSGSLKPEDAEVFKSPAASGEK
Source text: VR1 protein is a heat-gated cation channel that exchanges about 10 calcium ions for every sodium ion resulting in neuronal membrane depolarization and elevated intracellular calcium ion levels. Therefore the functional activity of compounds at the VR1 receptor may be determined by measuring changes in intracellular calcium levels in 293 cells expressing capsaicin-insensitive VR1 receptor variants. A dual wavelength ratiometric dye, Fura2, was used as an indicator of relative levels of calcium ions in a 96 well format using a bench top scanning fluorometer with integrated fluidics and temperature control (Flex Station, Molecular Devices).
A dual wavelength ratiometric dye, Fura2, was used as an indicator of relative levels of [Ca2+] in a 96 well format using a bench top scanning fluorometer with integrated fluidics and temperature control (Flex Station, Molecular Devices).
HEK 293 cells expressing hVR1 were grown on PDL coated 96-well black-walled plates, in the presence of a DMEM medium containing 5% Penstrep, 5% Glutamax, 200 ug/mL Hygromycin, 5 μg/mL Blasticide and 10% heat inactivated FBS. Prior to assay, the cells were loaded with 5 μg/mL Fura2 in normal saline solution at 37° C. for 40 minutes. Cells were then washed with normal saline to remove the dye.
The assay consists of two stages; a pre-treatment phase followed by a treatment phase. In the pretreatment phase, 50 μl of a compound solution was added to the cells. Immediately following, 50 μl of the test compound in the presence of agonist (a saline solution plus 10 mM citric acid bufferd to pH 5.7 with HCl) was added. Fura2 was excited at […] to indicate relative calcium concentration. Changes in wavelength measurements were made throughout the course of the experiment in 4 second intervals over a period of 3 minutes. The fluorescence ratio from the excitations at […] was recorded for analysis. Responses were measured as peak fluorescence ratio after compound-agonist addition minus baseline fluorescence ratio prior to treatment and were calculated for each concentration tested using the SoftMaxPro software. Data was expressed as percentage inhibition calculated as follows: […]
A dose response curve was then determined, from which the IC50 of each compound was calculated.

[3] = Pharmacokinetic profile after intravenous and oral administration in rats; format: in vivo, rat; conditions: IV 1 mg/kg, oral 5 mg/kg; for bioavailability / Vd / Cmax / Tmax: male, Sprague-Dawley; for bioavailability / Vd: plasma; for bioavailability / Vd / Cls (L/hrKg) / T/2: rat; for Vd / Cmax / Tmax / Cls (L/hrKg) / T/2: route of this column not given; for Cmax / Tmax: rat plasma
Method: The pharmacokinetic profile of Compound 1 was evaluated following intravenous and oral administration in rats. Sprague-Dawley male rats obtained from Charles River, San Diego, Calif. were acclimated for 24 hours.
Compounds of this invention were formulated at a concentration of 0.5 mg/mL for IV administration at a 1 mg/kg dose and 1 mg/mL for oral administration at a 5 mg/kg dose. All animals were weighed before dosing. The body weight was used to calculate the actual dose for each animal. The intravenous dose was administered through the jugular vein catheter in less than 1 minute. The oral dose volume was 1.5 mL for all PO rats administered through oral lavage.
For IV dosing, blood samples were collected using a pre-heparinized syringe via the caproic artery catheter before dosing and at t=2, 5, 15, 30, 60, 120, 180, 360, and 480 minutes post dosing. For PO dosing, blood samples were collected using a pre-heparinized syringe via the caproic artery catheter before dosing and at t=5, 15, 30, 60, 120, 180, 360, and 480 minutes post dosing. 250 uL of blood was obtained at each time point from each animal. Equal volumes of 0.9% normal saline were replaced to prevent dehydration. The whole blood samples were maintained on ice until centrifugation. Blood samples were centrifuged at 14,000 rpm for 10 minutes at 4° C., and the upper plasma layer was transferred into a clean vial and store at −80° C.

Compound	% Inhibition @ 1 μM [2]	other results
FC(F)(F)c1ccc(Nc2ncnc3c2CCN(c2ncccc2Cl)C3)cc1 [Example 1, 7-(3-Chloropyridin-2-yl)-N-(4-(trifluoromethyl)phenyl)-5,6,7,8-tetrahydropyrido[3,4-d]pyrimidin-4-amine]	–	latency of paw withdrawal (reversal of thermal hyperalgesia) [1]: significantly increased latency of paw withdrawal
CC(C)(C)c1ccc(Nc2ncnc3c2CCN(Cc2ccccc2)C3)cc1 [Example 2, N-(4-tert-Butylphenyl)-7-benzyl-5,6,7,8-tetrahydropyrido[3,4-d]pyrimidin-4-amine]	IA (IA inactive.)	–
FC(F)(F)CCN1CCc2c(ncnc2Nc2ccc3c(c2)OCCO3)C1 [Example 7, (2,3-Dihydro-benzo[1,4]dioxin-6-yl)-[7-(3,3,3-trifluoro-propyl)-5,6,7,8-tetrahydro-pyrido[3,4-d]pyrimidin-4-yl]-amine hydrochloride]	IA (IA inactive.)	–
FC(F)(F)c1ccc(Nc2ncnc3c2CCN(c2ncccc2C(F)(F)F)C3)cc1 [Example 12, (4-Trifluoromethyl-phenyl)-[7-(3-trifluoromethyl-pyridin-2-yl)-5,6,7,8-tetrahydro-pyrido[3,4-d]pyrimidin-4-yl]-amine]	–	IC50 [2]: > 1000 nM
FC(F)Oc1ccc(Nc2ncnc3c2CCN(c2ncccc2Cl)C3)cc1 [Example 15, 7-(3-Chloropyridin-2-yl)-N-(4-(difluoromethoxy)phenyl)-5,6,7,8-tetrahydropyrido[3,4-d]pyrimidin-4-amine]	IA (IA inactive.)	IC50 [2]: > 1000 nM
CC(C)S(=O)(=O)c1cccnc1N1CCc2c(ncnc2Nc2ccc(C(F)(F)F)cc2)C1 [Example 16, N-(4-(Trifluoromethyl)phenyl)-5,6,7,8-tetrahydro-7-(3-(isopropylsulfonyl)pyridin-2-yl)pyrido[3,4-d]pyrimidin-4-amine]	IA (IA inactive.)	–
Clc1cccnc1N1CCc2c(ncnc2Nc2ccccc2)C1 [Example 18, 7-(3-Chloropyridin-2-yl)-5,6,7,8-tetrahydro-N-phenylpyrido[3,4-d]pyrimidin-4-amine]	++ (“++” compound exhibited 26-50% inhibition of calcium ion influx induced by capsaicin stimulation.)	bioavailability [3]: 4.07%; Vd [3]: 18 L/kg; Cmax [3]: 44.6 ng/mL; Tmax [3]: 55.2 min; Cls (L/hrKg) [3]: 4.45 L/hrKg; T/2 [3]: 2.55 h
Fc1ccc(Nc2ncnc3c2CCN(c2ncccc2Cl)C3)cc1 [Example 19, 7-(3-Chloropyridin-2-yl)-N-(4-fluorophenyl)-5,6,7,8-tetrahydropyrido[3,4-d]pyrimidin-4-amine]	+++ (“+++” compound exhibited 51-75% inhibition of calcium ion influx induced by capsaicin stimulation.)	bioavailability [3]: 5.66%; Vd [3]: 12.2 L/kg; Cmax [3]: 24.5 ng/mL; Tmax [3]: 40.8 min; Cls (L/hrKg) [3]: 4.47 L/hrKg; T/2 [3]: 1.9 h
O=S(=O)(c1ccc(Nc2ncnc3c2CCN(c2ncccc2Cl)C3)cc1)C(F)(F)F [Example 22, 7-(3-Chloropyridin-2-yl)-5,6,7,8-tetrahydro-N-(4-(trifluoromethylsulfonyl)phenyl)pyrido[3,4-d]pyrimidin-4-amine]	IA (IA inactive.)	–
CS(=O)(=O)c1cccnc1N1CCc2c(ncnc2Nc2ccc(S(=O)(=O)C(F)(F)F)cc2)C1 [Example 23, 5,6,7,8-tetrahydro-7-(3-(methylsulfonyl)pyridin-2-yl)-N-(4-(trifluoromethylsulfonyl)phenyl)pyrido[3,4-d]pyrimidin-4-amine]	+ (“+” compound exhibited 0-25% inhibition of calcium ion influx induced by capsaicin stimulation.)	–
CS(=O)(=O)c1nc2c(c(Nc3ccc(C(F)(F)F)cc3)n1)CCN(c1ncccc1Cl)C2 [Example 25, [7-(3-Chloro-pyridin-2-yl)-2-methanesulfonyl-5,6,7,8-tetrahydro-pyrido[3,4-d]pyrimidin-4-yl]-(4-trifluoromethyl-phenyl)-amine]	IA (IA inactive.)	–
c1ccc(CN2CCc3c(ncnc3Nc3ccc4c(c3)OCCO4)C2)cc1 [Example 30, (7-Benzyl-5,6,7,8-tetrahydro-pyrido[3,4-d]pyrimidin-4-yl)-(2,3-dihydro-benzo[1,4]dioxin-6-yl)-amine]	IA (IA inactive.)	–
COCc1nc2c(c(Nc3ccc(C(F)(F)F)cc3)n1)CCN(Cc1ccccc1)C2 [Example 31, 7-Benzyl-N-(4-(trifluoromethyl)phenyl)-5,6,7,8-tetrahydro-2-(methoxymethyl)pyrido[3,4-d]pyrimidin-4-amine]	IA (IA inactive.)	–
Cc1cccc(N2CCc3c(ncnc3Nc3ccc4c(c3)OCCO4)C2)c1 [Example 36, 5,6,7,8-Tetrahydro-N-(2,3-dihydrobenzo[b][1,4]dioxin-6-yl)-7-m-tolylpyrido[3,4-d]pyrimidin-4-amine]	–	IC50 [2]: 501 to 1000 nM

Continued, in another order:

% Inhibition @ 1 μM [2]	Compound	other results
IA (IA inactive.)	CN(C)CCNc1nc2c(c(Nc3ccc(C(F)(F)F)cc3)n1)CCN(c1ncccc1Cl)C2 [Example 32, 7-(3-Chloropyridin-2-yl)-N^2-(2-(dimethylamino)ethyl)-N^4-(4-(trifluoromethyl)phenyl)-5,6,7,8-tetrahydropyrido[3,4-d]pyrimidine-2,4-diamine]	–
IA (IA inactive.)	c1ccc(CN2CCc3c(ncnc3Nc3cnc4ccccc4c3)C2)cc1 [Example 38, 7-Benzyl-5,6,7,8-tetrahydro-N-(quinolin-3-yl)pyrido[3,4-d]pyrimidin-4-amine]	–
IA (IA inactive.)	FC(F)(F)c1cccc(Nc2ncnc3c2CCN(c2ncccc2Cl)C3)c1 [Example 43, 7-(3-Chloropyridin-2-yl)-N-(3-(trifluoromethyl)phenyl)-5,6,7,8-tetrahydropyrido[3,4-d]pyrimidin-4-amine]	–
IA (IA inactive.)	FC(F)(F)c1ccc(Nc2ncnc3c2CCN(c2ccccc2)C3)cc1 [Example 44, N-(4-(Trifluoromethyl)phenyl)-5,6,7,8-tetrahydro-7-phenylpyrido[3,4-d]pyrimidin-4-amine]	–
IA (IA inactive.)	Cc1ccccc1N1CCc2c(ncnc2Nc2ccc(C(F)(F)F)cc2)C1 [Example 45, N-(4-(Trifluoromethyl)phenyl)-5,6,7,8-tetrahydro-7-o-tolylpyrido[3,4-d]pyrimidin-4-amine]	–
IA (IA inactive.)	Cc1ccc(N2CCc3c(ncnc3Nc3ccc(C(F)(F)F)cc3)C2)cc1 [Example 47, N-(4-(Trifluoromethyl)phenyl)-5,6,7,8-tetrahydro-7-p-tolylpyrido[3,4-d]pyrimidin-4-amine]	–
